Measurements from US8710069B2, “Opioid-nornicotine codrugs combinations for pain management” (University of Kentucky Research Foundation, priority 2008, dated 2014).
Several values for one entry are separate records, joined by “and”; a condition that tells them apart may be missing. Equal values may be shown once.

Key:
Rat [1] = format: in vivo; conditions: IT nornicotine perchlorate 10 ug/10 ul, Day 1
Method: • Experiment: Tail-Flick—Al at 40%; cut-off 10 sec. • Measurements will be taken at baseline (2×), 5, 10, 15, 30, 45, 60, 90, 120 minutes after drug administration. • Drug Treatment: • […] will be administered in a 10 ul vol., followed by a 10 ul saline flush. • Both R- & S-nornicotine will be tested. • Preparation of Solution: • 10 ug in 10 ul vol. • 100 ug in 100 ul vol. • […]. • 1 mg in 1 ml=10 mg/10 ml vol. • Drug Administration Schedule: […]

Rat [2] = assay: Tail-Flick test after intrathecal (IT) injection, AI 40%, cut-off 10 sec; format: in vivo; conditions: IT nornicotine perchlorate 10 ug/10 ul alone, Day 1, one rat per line, cutoff 10 sec; for Tail-Flick 5 min.: 5 min after injection; for Tail-Flick 10 min.: 10 min after injection; for Tail-Flick 15 min.: 15 min after injection; for Tail-Flick 30 min.: 30 min after injection; for Tail-Flick 45 min.: 45 min after injection; for Tail-Flick 60 min.: 60 min after injection
Method: • Experiment: Tail-Flick—Al at 40%; cut-off 10 sec. • Measurements will be taken at baseline (2×), 5, 10, 15, 30, 45, 60, 90, 120 minutes after drug administration. • Drug Treatment: • […] will be administered in a 10 ul vol., followed by a 10 ul saline flush. • Both R- & S-nornicotine will be tested. • Preparation of Solution: • 10 ug in 10 ul vol. • 100 ug in 100 ul vol. • […]. • 1 mg in 1 ml=10 mg/10 ml vol. • Drug Administration Schedule:
IT—Narnicotine Perchlorate—Day 1 Tail-Flick—IITC Life Science Model 33 Series 8 • Al=40% Cutoff=10 sec. […]

[3] = following peripheral administration of nicotine; cited from earlier work
[4] = following repeated nicotine dosing; cited from earlier work

| Structure (SMILES) | Behavior: side effects (Rat [1]) | Tail-Flick 5 min. (Rat [2]) | Tail-Flick 10 min. (Rat [2]) | Tail-Flick 15 min. (Rat [2]) | Tail-Flick 30 min. (Rat [2]) | Tail-Flick 45 min. (Rat [2]) | Tail-Flick 60 min. (Rat [2]) | residence in the rat's brain [3] [min] | residence in the rat's brain, times longer than nicotine [3] | accumulation in the brain compared to nicotine [4] |
| --- | --- | --- | --- | --- | --- | --- | --- | --- | --- | --- |
| c1cncc([C@H]2CCCN2)c1 [R, R-nornicotine] | no noticeable side effects | 3.04 s and 5.00 s and 5.47 s and 2.16 s and 6.67 s | 2.23 s and 4.08 s and 2.53 s and 1.80 s and 5.95 s | 3.16 sec and 4.34 sec and 2.82 sec (2×) and 2.86 sec | 2.55 s and 3.13 s and 3.90 s and 2.73 s and 4.14 s | 3.13 s and 2.87 s and 4.26 s and 2.40 s and 4.95 s | 2.19 s and 2.75 s and 3.12 s and 2.63 s and 3.93 s |  |  |  |
| c1cncc([C@@H]2CCCN2)c1 [S, S-nornicotine] | no obvious side effects | 9.06 s and 8.01 s and 4.40 s and 8.17 s and 3.84 s | 6.39 s and 5.47 s and 5.60 s and 6.21 s and 3.21 s | 4.58 s and 4.33 s and 6.08 s and 3.29 s and 3.56 s | 6.14 s and 3.31 s and 4.85 s and 3.47 s and 4.05 s | 3.95 s and 3.57 s and 2.23 s and 4.60 s and 4.07 s | 4.11 sec and 3.35 sec (2×) and 4.27 sec and 4.26 sec |  |  |  |
| CN1CCCC1c1cccnc1 (stereo not drawn) [nicotine] |  |  |  |  |  |  |  | 52 |  |  |
| c1cncc([C@@H]2CCCN2)c1 [nornicotine] |  |  |  |  |  |  |  | 166 | about 3 times | about 4 fold |
